Laboratory results from the supplement of paper PMC10883282.

Legend:
Assay in all cases: relative viability vs DMSO control (72 h) (fraction); higher = more viable cells
[1] = test system: SW872
Procedure, shortened: (§1)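 A 5 µM positive control and 0.1% DMSO vehicle ran alongside sarcoma cell lines seeded in 384-well plates to reach 80–90% confluence. Serially diluted compound, 2.5 µl from source plates of 10 mM to 0.0002 mM, was added after 24 h, and the plates were held 72 h at 37 °C, 5% CO2. Relative viability was worked out from ATPLite readings as percent growth averaged over up to triplicate wells. The values were rescaled so that 1 is full and 0 is none.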

[2] = test system: VA-ES-BJ
Procedure, shortened: as §1

[3] = test system: SW1353
Procedure, shortened: as §1

[4] = test system: A204
Procedure, shortened: as §1

[5] = test system: SK-LMS-1
Procedure, shortened: as §1

[6] = test system: G401
Procedure, shortened: as §1

[7] = test system: KHOS-240S
Procedure, shortened: as §1

[8] = test system: RD
Procedure, shortened: as §1

[9] = test system: HS729
Procedure, shortened: as §1

[10] = test system: SW982
Procedure, shortened: as §1

[11] = test system: MES-SA
Procedure, shortened: as §1

[12] = test system: SK-ES-1
Procedure, shortened: as §1

C=CC(=O)Nc1cc(Nc2nccc(-c3cn(C)c4ccccc34)n2)c(OC)cc1N(C)CCN(C)C [Osimertinib]
Details	relative viability
[1], 0.00017 µM	1.078
[1], 0.00051 µM	1.06
[1], 0.00152 µM	1.06
[1], 0.00457 µM	1.08
[1], 0.01372 µM	1.04
[1], 0.04115 µM	1.02
[1], 0.1235 µM	1.03
[1], 0.3704 µM	0.988
[1], 1.111 µM	0.894
[1], 3.333 µM	0.761
[1], 10 µM	0.384
[2], 0.00017 µM	1.09
[2], 0.00051 µM	1.09
[2], 0.00152 µM	1.06
[2], 0.00457 µM	1.04
[2], 0.01372 µM	1.03
[2], 0.04115 µM	1.02
[2], 0.1235 µM	0.984
[2], 0.3704 µM	0.926
[2], 1.111 µM	0.877
[2], 3.333 µM	0.752
[2], 10 µM	0.0739
[3], 0.00017 µM	1.014
[3], 0.00051 µM	1.007
[3], 0.00152 µM	1.002
[3], 0.00457 µM	1
[3], 0.01372 µM	0.97
[3], 0.04115 µM	0.96
[3], 0.1235 µM	0.9
[3], 0.3704 µM	0.82
[3], 1.111 µM	0.8
[3], 3.333 µM	0.742
[3], 10 µM	0.0174
[4], 0.00017 µM	1.03
[4], 0.00051 µM	1.04
[4], 0.00152 µM	1.05
[4], 0.00457 µM	1.04
[4], 0.01372 µM	1.01
[4], 0.04115 µM	1.03
[4], 0.1235 µM	1.03
[4], 0.3704 µM	0.9068
[4], 1.111 µM	0.777
[4], 3.333 µM	0.582
[4], 10 µM	0.141
[5], 0.00017 µM	1.1
[5], 0.00051 µM	1.1
[5], 0.00152 µM	1.08
[5], 0.00457 µM	1.07
[5], 0.01372 µM	1.06
[5], 0.04115 µM	1.03
[5], 0.1235 µM	1.07
[5], 0.3704 µM	1.02
[5], 1.111 µM	0.972
[5], 3.333 µM	0.776
[5], 10 µM	0.032
[6], 0.00017 µM	1.01
[6], 0.00051 µM	1.02
[6], 0.00152 µM	1.03
[6], 0.00457 µM	1.03
[6], 0.01372 µM	1.02
[6], 0.04115 µM	0.976
[6], 0.1235 µM	0.962
[6], 0.3704 µM	0.87
[6], 1.111 µM	0.816
[6], 3.333 µM	0.711
[6], 10 µM	0.0893
[7], 0.00017 µM	1.05
[7], 0.00051 µM	1.06
[7], 0.00152 µM	1.06
[7], 0.00457 µM	1.08
[7], 0.01372 µM	1.04
[7], 0.04115 µM	1.05
[7], 0.1235 µM	1.05
[7], 0.3704 µM	1.03
[7], 1.111 µM	0.926
[7], 3.333 µM	0.767
[7], 10 µM	0.167
[8], 0.00017 µM	1.08
[8], 0.00051 µM	1.08
[8], 0.00152 µM	1.11
[8], 0.00457 µM	1.11
[8], 0.01372 µM	1.11
[8], 0.04115 µM	1.11
[8], 0.1235 µM	1.1
[8], 0.3704 µM	1.07
[8], 1.111 µM	1.02
[8], 3.333 µM	0.78
[8], 10 µM	0.0148
[9], 0.00017 µM	1.06
[9], 0.00051 µM	0.954
[9], 0.00152 µM	1.04
[9], 0.00457 µM	0.976
[9], 0.01372 µM	0.944
[9], 0.04115 µM	0.933
[9], 0.1235 µM	0.907
[9], 0.3704 µM	0.822
[9], 1.111 µM	0.78
[9], 3.333 µM	0.681
[9], 10 µM	0.533
[10], 0.00017 µM	1.02
[10], 0.00051 µM	1.05
[10], 0.00152 µM	1.01
[10], 0.00457 µM	1.03
[10], 0.01372 µM	1.04
[10], 0.04115 µM	1.03
[10], 0.1235 µM	0.996
[10], 0.3704 µM	0.983
[10], 1.111 µM	0.881
[10], 3.333 µM	0.678
[10], 10 µM	0.017
[11], 0.00017 µM	0.979
[11], 0.00051 µM	0.947
[11], 0.00152 µM	0.961
[11], 0.00457 µM	0.932
[11], 0.01372 µM	0.97
[11], 0.04115 µM	0.941
[11], 0.1235 µM	0.948
[11], 0.3704 µM	0.882
[11], 1.111 µM	0.758
[11], 3.333 µM	0.569
[11], 10 µM	0.29
[12], 0.00017 µM	1
[12], 0.00051 µM	1.05
[12], 0.00152 µM	1.07
[12], 0.00457 µM	1.01
[12], 0.01372 µM	1.02
[12], 0.04115 µM	1.026
[12], 0.1235 µM	1
[12], 0.3704 µM	0.942
[12], 1.111 µM	0.762
[12], 3.333 µM	0.294
[12], 10 µM	0.011
